Consider 23 molecules from patent publication US20220089592A1, “IMIDAZO[1,2-A]PYRIDINYL DERIVATIVES AS IRAK4 INHIBITORS” (priority 2019, published 2022).

Assay [1] has as its target T1, IRAK4 (Homo sapiens, UniProt Q9NWZ3).
T1 sequence (Q9NWZ3 1-460): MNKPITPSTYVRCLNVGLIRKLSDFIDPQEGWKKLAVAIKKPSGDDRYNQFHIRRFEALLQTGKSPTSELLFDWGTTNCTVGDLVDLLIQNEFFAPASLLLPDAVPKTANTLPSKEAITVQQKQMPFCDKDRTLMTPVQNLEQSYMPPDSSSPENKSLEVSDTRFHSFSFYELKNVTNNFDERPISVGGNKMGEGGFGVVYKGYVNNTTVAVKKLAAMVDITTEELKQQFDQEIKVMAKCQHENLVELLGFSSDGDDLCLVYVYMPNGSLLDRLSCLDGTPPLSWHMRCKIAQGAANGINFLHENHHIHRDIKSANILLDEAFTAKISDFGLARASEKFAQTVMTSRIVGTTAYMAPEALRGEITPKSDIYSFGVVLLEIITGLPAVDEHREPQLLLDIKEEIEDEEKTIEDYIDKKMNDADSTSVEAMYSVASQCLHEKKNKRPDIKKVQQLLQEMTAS
Briefly: 2-hour 10 μM ATP Biochemical Assay (MesoScale Detection format; IRAK4 phosphorylation of biotin labeled IRAK1 activation loop peptide). The note with it: IRAK4 MSD BIOCHEMICAL (10 μM ATP) IC50 (μM), 1 nM IRAK4, 2 hours. In short, it runs like this: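 Electrochemiluminescent MSD readout: after streptavidin capture, phosphothreonine on the biotin-labelled IRAK1 activation-loop peptide detected by rabbit antibody and Sulfo-Tag secondary. Phosphorylation ran 2 h with 10 μM ATP before EDTA quench.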

In assay [2] the target is T1, IRAK4. Briefly: 2-hour 1 mM ATP IRAK4 Biochemical assay (as above, but with 100 pM IRAK4 and 1 mM ATP). The note with it: IRAK4 MSD BIOCHEMICAL (1 mM ATP) IC50 (μM), 100 pM IRAK4, 2 hours. In a few lines: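 MSD electrochemiluminescence read-out: biotinylated peptide product bound to streptavidin plates, probed with anti-P-Thr rabbit antibody and Sulfo-Tag goat anti-rabbit. Kinase reaction used 1 mM ATP and 100 pM IRAK4 over 2 hours before EDTA quench.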

Broadly, the IC50 is the concentration at which inhibition is half-maximal. A higher IC50 goes with weaker potency in that assay. As to `CCOc1cc2nc(C(C)(C)C#N)cn2cc1NC(=O)c1cccc(C(F)F)n1` [Example 152, N-(2-(2-cyanopropan-2-yl)-7-ethoxyimidazo[1,2-a]pyridin-6-yl)-6-(difluoromethyl)picolinamide], the 50% inhibitory concentration (IC50) at IRAK4 [1] and on IRAK4 [2] was 0.004 µM in each case.

Consider `CCOc1cc2nc(C3CCOCC3)cn2cc1NC(=O)c1cccc(C(C)C)n1` [Example 218, N-(7-ethoxy-2-(tetrahydro-2H-pyran-4-yl)imidazo[1,2-a]pyridin-6-yl)-6-isopropylpicolinamide], for which the half-inhibitory concentration (IC50) against IRAK4 [1] was 0.001 µM; against IRAK4 [2], 0.002 µM.

Take `CCOc1nc(NC(=O)c2cccc(OC)n2)cn2cc(C3CCOCC3)nc12` [Example 147, N-(8-ethoxy-2-(tetrahydro-2H-pyran-4-yl)imidazo[1,2-a]pyrazin-6-yl)-6-methoxypicolinamide]: the results for the IC50 against IRAK4 [1] and at IRAK4 [2] were 0.011 µM and 0.051 µM, respectively.

`CCOc1cc2nc(C3CCOCC3)cn2cc1NC(=O)c1ccn(C2CCCC2)n1` [Example 208, 1-cyclopentyl-N-(7-ethoxy-2-(tetrahydro-2H-pyran-4-yl)imidazo[1,2-a]pyridin-6-yl)-1H-pyrazole-3-carboxamide]: the concentration for half-maximal inhibition (IC50) against IRAK4 [1] worked out at 0.002 µM; at IRAK4 [2] it was 0.008 µM.

Regarding `O=C(Nc1cn2cc(C3CCOCC3)nc2cc1OC1COC1)c1cccc(C(F)F)n1` [Example 182, 6-(difluoromethyl)-N-(7-(oxetan-3-yloxy)-2-(tetrahydro-2H-pyran-4-yl)imidazo[1,2-a]pyridin-6-yl)picolinamide], the figures for the half-maximal inhibitory concentration (IC50) at IRAK4 [1] and on IRAK4 [2] were 0.001 µM and 0.004 µM, respectively.

Take `CCOc1cc2nc([C@@H]3C[C@H]3F)cn2cc1NC(=O)c1cccc(C(F)F)n1` (stereo in doubt) [Example 254, 6-(difluoromethyl)-N-(7-ethoxy-2-((1S*, 2R*)-2-fluorocyclopropyl)imidazo[1,2-a]pyridin-6-yl)picolinamide]: the IC50 at IRAK4 [1] came to 0.002 µM; against IRAK4 [2], 0.005 µM.

Consider `CCOc1cc2nc(C3CCNC3)cn2cc1NC(=O)c1cccc(C(F)(F)F)n1` (stereo not shown) [Example 62, N-(7-ethoxy-2-(pyrrolidin-3-yl)imidazo[1,2-a]pyridin-6-yl)-6-(trifluoromethyl)picolinamide], for which the IC50 against IRAK4 [1] and against IRAK4 [2] was 0.001 µM throughout.

Consider `CCOc1cc2nc(C3CCN(C(C)=O)CC3)cn2cc1NC(=O)c1cccc(C(F)(F)F)n1` [Example 72, N-(2-(1-acetylpiperidin-4-yl)-7-ethoxyimidazo[1,2-a]pyridin-6-yl)-6-(trifluoromethyl)picolinamide], for which the IC50 on IRAK4 [1] and on IRAK4 [2] was 0.001 µM in each case.

As for `CC1(C)CCC(Oc2cc3nc(C4CCOCC4)cn3cc2NC(=O)c2cccc(C(F)F)n2)C1` (stereo not shown) [Example 180, 6-(difluoromethyl)-N-(7-((3,3-dimethylcyclopentyl)oxy)-2-(tetrahydro-2H-pyran-4-yl)imidazo[1,2-a]pyridin-6-yl)picolinamide], the IC50 on IRAK4 [1] and against IRAK4 [2] was 0.001 µM in each case.

Regarding `CCOc1cc2nc(Cn3cncn3)cn2cc1NC(=O)c1cccc(C(F)F)n1` [Example 82, N-(2-((1H-1,2,4-triazol-1-yl)methyl)-7-ethoxyimidazo[1,2-a]pyridin-6-yl)-6-(difluoromethyl)picolinamide], the results for the IC50 against IRAK4 [1] and at IRAK4 [2] were 0.001 µM and 0.004 µM, respectively.

Regarding `CCOc1cc2nc(C3CNC3)cn2cc1NC(=O)c1cccc(C(F)(F)F)n1` [Example 61, N-(2-(azetidin-3-yl)-7-ethoxyimidazo[1,2-a]pyridin-6-yl)-6-(trifluoromethyl)picolinamide], the IC50 on IRAK4 [1] came to 0.001 µM; against IRAK4 [2], 0.002 µM.

As to `CCOc1cc2nc(CF)cn2cc1NC(=O)c1cccc(C(F)(F)F)n1` [Example 20, N-(7-ethoxy-2-(fluoromethyl)imidazo[1,2-a]pyridin-6-yl)-6-(trifluoromethyl)picolinamide], the IC50 came to 0.003 µM against IRAK4 [1] and 0.006 µM at IRAK4 [2].

Regarding `CC1(COc2cc3nc(C[C@@H]4CCOC4)cn3cc2NC(=O)c2cccc(C(F)(F)F)n2)COC1` (single isomer, unassigned) [Example 164], the IC50 was found to be 0.003 µM on IRAK4 [1] and 0.005 µM at IRAK4 [2].

On to `CCOc1cc2nc(C(C)(C)O)cn2cc1NC(=O)c1cccc(C(F)F)n1` [Example 100, 6-(difluoromethyl)-N-(7-ethoxy-2-(2-hydroxypropan-2-yl)imidazo[1,2-a]pyridin-6-yl)picolinamide], for which the IC50 at IRAK4 [1] turned out to be 0.008 µM; at IRAK4 [2], 0.011 µM.

In the case of `CCOc1cc2nc(C3CC3)cn2cc1NC(=O)c1cccc(OC)n1` [Example 117, N-(2-cyclopropyl-7-ethoxyimidazo[1,2-a]pyridin-6-yl)-6-methoxypicolinamide], the IC50 amounted to 0.027 µM against IRAK4 [1] and 0.063 µM against IRAK4 [2].

In the case of `CCOc1cc2nc([C@H]3C[C@@H](OC)C3)cn2cc1NC(=O)c1cccc(C(F)F)n1` [Example 115, 6-(difluoromethyl)-N-(7-ethoxy-2-((1s,3s)-3-methoxycyclobutyl)imidazo[1,2-a]pyridin-6-yl)picolinamide], the 50% inhibitory concentration (IC50) is 0.001 µM on IRAK4 [1] and 0.002 µM on IRAK4 [2].

With `CCOc1cc2nc(C[C@H]3CCOC3)cn2cc1NC(=O)c1cccc(C(F)F)n1` (single isomer, unassigned) [Example 15], the IC50 against IRAK4 [1] and on IRAK4 [2] was 0.001 µM each time.

Consider `COCCCc1cn2cc(NC(=O)c3cccc(C(F)F)n3)ccc2n1` [Example 234, 6-(difluoromethyl)-N-(2-(3-methoxypropyl)imidazo[1,2-a]pyridin-6-yl)picolinamide], for which the concentration for half-maximal inhibition (IC50) is 0.011 µM at IRAK4 [1] and 0.049 µM against IRAK4 [2].

As for `CC1(COc2cc3nc(C4CC4)cn3cc2NC(=O)c2cccc(C(F)F)n2)COC1` [Example 50, N-(2-cyclopropyl-7-((3-methyloxetan-3-yl)methoxy)imidazo[1,2-a]pyridin-6-yl)-6-(difluoromethyl)picolinamide], the 50% inhibitory concentration (IC50) was 0.004 µM on IRAK4 [1] and 0.014 µM on IRAK4 [2].

In the case of `CCOc1cc2nc(C3CCOCC3)cn2cc1NC(=O)c1cccc(C)c1F` [Example 214, N-(7-ethoxy-2-(tetrahydro-2H-pyran-4-yl)imidazo[1,2-a]pyridin-6-yl)-2-fluoro-3-methylbenzamide], the IC50 on IRAK4 [1] came out at 0.003 µM; against IRAK4 [2], 0.007 µM.

For the molecule `O=C1CC[C@@H](CCOc2cc3nc(C4CC4)cn3cc2NC(=O)c2cccc(C(F)F)n2)N1` [Example 73, (S)—N-(2-cyclopropyl-7-(2-(5-oxopyrrolidin-2-yl)ethoxy)imidazo[1,2-a]pyridin-6-yl)-6-(difluoromethyl)picolinamide], the IC50 stood at 0.011 µM against IRAK4 [1] and 0.032 µM against IRAK4 [2].

Consider `CCOc1cc2nc(C3CCOCC3)cn2cc1NC(=O)c1cccc(C2CC2)n1` [Example 366, 6-cyclopropyl-N-(7-ethoxy-2-(tetrahydro-2H-pyran-4-yl)imidazo[1,2-a]pyridin-6-yl)picolinamide], for which the results for the IC50 at IRAK4 [1] and against IRAK4 [2] were 0.003 µM and 0.004 µM, respectively.

Consider `CCOc1cc2nc(CN3CCCC3=O)cn2cc1NC(=O)c1cccc(C(F)F)n1` [Example 85, 6-(difluoromethyl)-N-(7-ethoxy-2-((2-oxopyrrolidin-1-yl)methyl)imidazo[1,2-a]pyridin-6-yl)picolinamide], for which the IC50 against IRAK4 [1] was 0.002 µM; against IRAK4 [2] it was 0.012 µM.
